From ChEMBL document CHEMBL1155679, “New xenicane diterpenoids from the gorgonian Acalycigorgia inermis” (2000)
In brackets after ≈: the same amount, converted by molar mass.

The compounds below were run on K562 (assay: Cytotoxicity against human K562 cells). Details: read-out: LC50 (the source's name).
Format: functional

Going from `C=C1CC[C@@H]2O[C@@]2(C)CC[C@@H]2[C@H](CCC=C(C)C)C(=O)OC[C@@H]12` [ACALYCIXENIOLIDE F] to `C=C=CCC[C@@H]1C(=O)OC[C@H]2C(=C)CC[C@@H]3O[C@@]3(C)CC[C@H]12` [ACALYCIXENIOLIDE C], the CC50 rises from 0.2 µg/mL (≈ 0.628 µM) to 1.6 µg/mL (≈ 5.29 µM) (8-fold).

Compared with `C=C=CCC(OC(C)=O)C1=CO[C@H](OC(C)=O)[C@H]2C(=C)CC[C@@H]3O[C@@]3(C)CC[C@H]12` (some centres undefined) [ACALYCIXENIOLIDE E], `C=C=CC/C=C1/C(=O)OC[C@H]2C(=C)CC[C@@H]3O[C@@]3(C)CC[C@H]12` [ACALYCIXENIOLIDE D] is 11-fold higher in CC50: 4.7 µg/mL (≈ 11.7 µM) for the first, 52 µg/mL (≈ 173 µM) for the second.
